Data taken from patent US11911393B2, “Non-catalytic substrate-selective p38alpha-specific MAPK inhibitors with endothelial-stabilizing and anti-inflammatory activity, and methods of use thereof” (University of Maryland, Baltimore, priority 2016, dated 2024).
“Also recorded” adds a separate entry of the source. Where two headings read alike, the source gives them in different places.

Experiments:
[1] = system: patients with Crohn's disease; settings: cited from earlier work
[2] = biological target: T1, unphosphorylated recombinant human p38α (Homo sapiens, UniProt Q16539); assay: Differential scanning fluorimetry (DSF), binding to p38α; settings: for stabilization of p38α in DSF (binding), in words: DSF melting temperature, concentration series
T1 construct: made in house; host or cells: E. coli BL21

[3] = biological target: ERK2 (Homo sapiens, UniProt P28482); assay: DSF, binding to ERK2; settings: for ΔTm at 100 µM / ERK2 ΔTm (° C.) @100 μM: change in melting temperature relative to DMSO control in DSF assay; for stabilization of ERK2 in DSF (binding), in words: test compounds at 10-100 μM
[4] = system: HMVECL monolayers; assay: Endothelial permeability assay (10 kDa dextran flux); format: cell-based, human; settings: for reduction of TNFα/hyperthermia-induced permeability increase: HMVECL, 10 kDa dextran, TNFα and 39.5° C. for 6 h
Method: Endothelial permeability assay: Permeability of HMVECL monolayers was assessed by measuring transendothelial flux of 10 kDa dextran conjugated to Cascade blue fluorescent dye for 30 min at 37° C. in Matrigel-coated 3 μm pore size Transwell plates.

[5] = system: IL-8-directed neutrophil TEM through HMVECLs; assay: Neutrophil transendothelial migration (TEM) assay; format: cell-based, human; settings: HMVECLs preincubated at 39.5° C. for 6 h
[6] = system: HMVECLs; assay: Cytotoxicity assay (MTS, LDH release); format: cell-based, human; settings: 100 μM for 48 h
Method: Cytotoxicity of HMVECL exposed to 10-100 μM of each compound is analyzed by MTS assay (Promega), LDH release (Promega), and immunoblotting for activated caspase-3 (Cell Signaling).
Cytotoxicity assay: Cytotoxicity was monitored in parallel HMVEC-L monolayers established in 96-well culture plates using a colorimetric assay that measured reduction of 3-(4,5-dimethylthiazol-2-yl)-5-(3-carboxymethoxyphenyl)-2-(4-sulfophenyl)-2H-tetrazolium (MTS) to a formazan dye (CellTiter 96™; Promega; Madison, WI) according to the manufacturer's protocol and quantifying product formation by measuring absorption at 490 nm.

[7] = system: LPS/hyperthermia-induced ALI in CD1 mice; assay: Mouse i.t. LPS/FRH-induced acute lung injury model; settings: for mice that died within 24 h: single i.p. injection of 100-1000 μg UM101, 1000 μg UM60 or 1000 μg SB203580, 30 min before i.t. 50 μg LPS and hyperthermia; for reduction of lavage neutrophil content vs. DMSO-treated controls: mouse LPS/hyperthermia ALI, 24 h
[8] = biological target: T2, p38β (Homo sapiens, UniProt Q15759); assay: DSF, binding to p38β; settings: DSF melting temperature, concentration series
T2 construct: HA (N); made in house; host or cells: E. coli BL21

[9] = biological target: T3, p38α mutant (R49K/HL107-8TF/K165R) (Homo sapiens, UniProt Q16539, H107T/K165R/L108F/R49K); assay: DSF, binding to target-disrupted p38α mutant; settings: compared with wild-type p38α
T3 construct: made in house; host or cells: E. coli BL21

[10] = system: LPS-induced cytokine expression in PMA-differentiated THP1 cells; assay: LPS-induced cytokine expression, PCR-based cytokine array; format: cell-based, human; settings: 25 μM SB203580 or 10, 25, or 100 μM UM101
[11] = system: p38-dependent phosphorylation of MK2 and Stat-1 in HeLa cells; assay: Inhibition of substrate phosphorylation (immunoblot); format: cell-based, human; settings: 10 μM SB203580 or 50 μM UM101 for 30 min
Text: Cell extracts prepared in RIPA buffer containing protease and phosphatase inhibitors were resolved by SDS-PAGE, transferred to PVDF membrane, blocked with 5% nonfat dry milk, probed with primary antibodies against phosphorylated MK2 and Stat-1, and total p38α as a loading control. Bands were detected using secondary antibodies conjugated to infrared fluorophores and infrared fluorescence imaging (Odyssey; LICOR).

[12] = biological target: T4, p38α (Homo sapiens, UniProt Q16539); assay: STD-NMR, binding to p38α; settings: 200 μM UM101, 5 μM p38 protein
T4 construct: made in house; host or cells: E. coli BL21
Method: (§1) Spectra were recorded on an Agilent DD2 500-MHz spectrometer equipped with a 5-mm inverse HFCN probe head at 300 K. During each transient, the protein was saturated with a series of 58 […]-shaped pulses (50 ms, 1 ms delay between pulses) using the vendor-supplied STD-ES pulse sequence, for a total saturation time of 3 seconds. The on-resonance irradiation of protein was done at 0.5 ppm and off-resonance irradiation at 30 ppm. The vendor-supplied WATERGATE pulse sequence was used to suppress the water signal in the STD spectrum. The on-resonance and off-resonance pulse sequences were subtracted internally. A total of 16,384 transients were collected for each STD experiment with a 1 second delay between acquisitions, 6000 Hz spectral width, and 1.3 second acquisition time.

[13] = biological target: T2, p38β; assay: STD-NMR, binding to p38β; settings: 200 μM UM101, 5 μM p38 protein
Method: as §1

[14] = biological target: T5, mutated p38α (Homo sapiens, UniProt Q16539, H107T/K165R/L108F/R49K); assay: STD-NMR, binding to mutated p38α; settings: 200 μM UM101, 5 μM p38 protein
T5 construct: made in house; host or cells: E. coli BL21
Method: as §1

[15] = system: rheumatoid arthritis; settings: two trials in rheumatoid arthritis; cited from earlier work
[16] = system: patients at-risk for ARDS; settings: early phase IIa trial, cited from earlier work
[17] = system: patients with hypercholesterolemia; settings: cited from earlier work
[18] = 100 μM, change in melting temperature relative to DMSO control in DSF assay, read-out: p38α ΔTm (° C.) @100 μM
[19] = added at 100 μM, DSF, read-out: increase in melting temperature of p38α
[20] = 100 μM, change in melting temperature relative to DMSO control in DSF assay

T1 sequence (Q16539 whole entry): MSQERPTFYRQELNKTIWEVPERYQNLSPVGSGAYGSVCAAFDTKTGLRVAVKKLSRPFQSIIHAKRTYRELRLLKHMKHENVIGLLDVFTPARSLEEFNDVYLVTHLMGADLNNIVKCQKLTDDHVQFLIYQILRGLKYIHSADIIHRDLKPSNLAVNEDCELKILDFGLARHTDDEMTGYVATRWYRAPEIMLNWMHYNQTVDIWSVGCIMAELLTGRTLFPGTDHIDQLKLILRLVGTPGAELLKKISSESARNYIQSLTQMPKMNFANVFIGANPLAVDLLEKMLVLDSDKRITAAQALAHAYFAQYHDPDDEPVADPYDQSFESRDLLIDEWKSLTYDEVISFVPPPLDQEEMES
Sequence of ERK2 (P28482 whole entry, species assumed): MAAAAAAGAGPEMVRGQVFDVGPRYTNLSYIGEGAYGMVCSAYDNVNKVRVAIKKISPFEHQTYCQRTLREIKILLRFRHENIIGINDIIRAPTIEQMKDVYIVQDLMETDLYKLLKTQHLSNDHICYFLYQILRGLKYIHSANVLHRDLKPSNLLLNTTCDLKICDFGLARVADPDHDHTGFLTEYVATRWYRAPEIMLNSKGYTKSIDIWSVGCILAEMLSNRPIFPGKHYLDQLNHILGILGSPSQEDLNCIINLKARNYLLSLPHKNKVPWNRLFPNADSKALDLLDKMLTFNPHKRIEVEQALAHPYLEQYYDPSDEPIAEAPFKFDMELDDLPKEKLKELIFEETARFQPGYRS
T2 sequence (Q15759 whole entry): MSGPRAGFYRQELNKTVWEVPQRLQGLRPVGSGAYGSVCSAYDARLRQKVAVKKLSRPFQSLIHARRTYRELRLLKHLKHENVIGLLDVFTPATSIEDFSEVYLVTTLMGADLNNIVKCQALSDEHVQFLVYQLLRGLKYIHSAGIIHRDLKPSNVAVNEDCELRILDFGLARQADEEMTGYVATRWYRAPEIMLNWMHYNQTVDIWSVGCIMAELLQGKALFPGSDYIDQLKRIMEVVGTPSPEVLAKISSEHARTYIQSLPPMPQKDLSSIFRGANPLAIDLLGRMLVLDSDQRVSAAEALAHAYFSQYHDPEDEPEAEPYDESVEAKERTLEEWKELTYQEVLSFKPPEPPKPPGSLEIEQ
T4 sequence (Q16539 whole entry): as the sequence (Q16539 whole entry) above
T3 sequence (Q16539 whole entry R49K/H107T/L108F/K165R): as the sequence (Q16539 whole entry) above, with R49K, H107T, L108F, K165R counted along it
T5 sequence (Q16539 whole entry R49K/H107T/L108F/K165R): as the sequence (Q16539 whole entry) above, with R49K, H107T, L108F, K165R counted along it

SMILES: Cc1ccc(-n2nc(C(C)(C)C)cc2NC(=O)Nc2ccc(OCCN3CCOCC3)c3ccccc23)cc1 [BIRB 796]
- clinical effect in Crohn's disease [1]: no clinical effect
- serum CRP levels [1]: transiently reduced

SMILES: O=C1c2cc(S(=O)(=O)NCCO)ccc2-c2ccc(S(=O)(=O)NCCO)cc21 [UM60, N2,N7-di(2-hydroxyethyl)-9-oxo-9H-2,7-fluorenedisulfonamide]
- ΔTm at 100 µM [2, 18]: 0.735 °C
- stabilization of p38α in DSF (binding), in words [2]: stabilized p38α
- ΔTm at 100 µM [2, 19]: ~0.7 °C
- ΔTm at 100 µM [3]: 0.195 °C
- stabilization of ERK2 in DSF (binding), in words [3]: not ERK2
- reduction of TNFα/hyperthermia-induced permeability increase ([4]; 10 μM): no effect
- reduction of TNFα/hyperthermia-induced permeability increase ([4]; 25 μM): no effect
- reduction of TNFα/hyperthermia-induced permeability increase ([4]; 100 μM): 71%
- reduction of hyperthermia-augmented neutrophil TEM ([5]; 10 μM): 18%
- reduction of hyperthermia-augmented neutrophil TEM ([5]; 25 μM): 89%
- reduction of hyperthermia-augmented neutrophil TEM ([5]; 50 μM): less than baseline levels
- toxicity in LDH release and MTS assays [6]: Neither compound was toxic
- mice that died within 24 h [7]: Four of six

SMILES: O=C(Nc1ccc(CN2CCS(=O)(=O)CC2)cc1)c1ccc(Cl)cc1 [UM101, 4-chloro-N-{4-[(1,1-dioxo-1 lambda˜6˜,4-thiazinan-4-yl)methyl]phenyl}benzamide]
- ΔTm at 100 µM [2, 18]: 0.667 °C
- stabilization of p38α in DSF (binding), in words [2]: concentration-dependent increase in melting temperature of p38α; also recorded: only stabilized p38α
- ΔTm at 100 µM [2, 19]: ~0.7 °C
- ΔTm at 100 µM [3]: 0.0175 °C
- stabilization of ERK2 in DSF (binding), in words [3]: not ERK2
- stabilization of p38β in DSF (binding), in words [8]: not p38β; also recorded: only stabilized p38α
- binding to p38α mutant with four of ten target pocket amino acids substituted, in words [9]: abrogated UM101 binding; also recorded: no UM101-binding
- reduction of TNFα/hyperthermia-induced permeability increase ([4]; 10 μM): 74%
- reduction of TNFα/hyperthermia-induced permeability increase ([4]; 25 μM): 89%
- reduction of TNFα/hyperthermia-induced permeability increase ([4]; 100 μM): > 100%
- endothelial barrier stabilization compared with SB203580, in words ([4]; HMVECL barrier assays (FIG. 2a, 2b)): more effectively stabilized endothelial barriers than SB203580
- reduction of hyperthermia-augmented neutrophil TEM ([5]; 10 μM): 95%
- reduction of hyperthermia-augmented neutrophil TEM ([5]; 25 μM): less than baseline levels
- reduction of hyperthermia-augmented neutrophil TEM ([5]; 50 μM): less than baseline levels
- toxicity in LDH release and MTS assays [6]: Neither compound was toxic
- LPS-stimulated genes of the array (16) whose expression was inhibited, in words [10]: inhibited expression of all SB203580-inhibited genes except TNFSF9
- anisomycin-stimulated phosphorylation of MK2, in words [11]: partial inhibition of MK2 phosphorylation
- anisomycin-stimulated phosphorylation of Stat-1, in words [11]: reduced
- anisomycin-stimulated phosphorylation of MK2, in words ([11]; listed as UM1010): reduced
- interaction with p38α in STD-NMR, in words [12]: confirmed specific UM101 binding to p38α; also recorded: protons in both aromatic rings of UM101 interact with p38α
- interaction with p38β in STD-NMR, in words [13]: much weaker
- interaction with mutated p38α in STD-NMR, in words [14]: much weaker
- reduction of lavage neutrophil content vs. DMSO-treated controls ([7]; 100 μg i.p.): 44.4%
- reduction of lavage neutrophil content vs. DMSO-treated controls ([7]; 300 μg i.p.): 49.5%
- reduction of lavage neutrophil content vs. DMSO-treated controls ([7]; 500 μg i.p.): 55.3%
- reduction of lavage neutrophil content vs. DMSO-treated controls ([7]; 1000 μg i.p.): 54%
- tolerability and potency compared with SB203580 in experimental ALI, in words ([7]; mouse LPS/FRH-induced ALI): well tolerated and more potent than SB203580 in mitigating experimental ALI; also recorded: more potent than SB203580 in reducing neutrophil and protein accumulation in BAL
- mice that died within 24 h [7]: All sixteen UM101-pretreated mice survived

SMILES: NC(=O)c1ccc(N(C(N)=O)c2c(F)cccc2F)nc1-c1ccc(F)cc1F [VX-702]
- proportion of treated subjects with ACR20 symptom score vs. placebo [15]: small increases

SMILES: COc1ccccc1N1CCN(CCCCNS(=O)(=O)c2ccc(C)cc2)CC1 [compound 2]
- p38α ΔTm (° C.) @100 μM [2, 20]: −0.05 °C
- ERK2 ΔTm (° C.) @100 μM [3]: 0.412 °C

SMILES: O=C1NCCN1CCNS(=O)(=O)c1ccc(S(=O)(=O)c2ccccc2)s1 [compound 3]
- p38α ΔTm (° C.) @100 μM [2, 20]: 0.282 °C
- stabilization of p38α in DSF (binding), in words [2]: concentration-dependent stabilization of p38α
- ERK2 ΔTm (° C.) @100 μM [3]: 0.337 °C
- stabilization of ERK2 in DSF (binding), in words [3]: also stabilized ERK2

SMILES: CN1CCN(CC(=O)Nc2ccc(S(N)(=O)=O)cc2)CC1 [compound 4]
- p38α ΔTm (° C.) @100 μM [2, 20]: 0.065 °C
- ERK2 ΔTm (° C.) @100 μM [3]: 0.452 °C

SMILES: CN1CCN(c2ccc(CNS(=O)(=O)c3ccc(-c4ccon4)s3)cc2)CC1 [compound 5]
- p38α ΔTm (° C.) @100 μM [2, 20]: 0.808 °C
- stabilization of p38α in DSF (binding), in words [2]: concentration-dependent stabilization of p38α
- ERK2 ΔTm (° C.) @100 μM [3]: 0.628 °C
- stabilization of ERK2 in DSF (binding), in words [3]: also stabilized ERK2

SMILES: Cc1nc(-c2ccc(S(=O)(=O)NCCCN)s2)cs1 [compound 8]
- p38α ΔTm (° C.) @100 μM [2, 20]: −0.07 °C
- ERK2 ΔTm (° C.) @100 μM [3]: 0.531 °C

SMILES: CS(=O)(=O)N1CCN(c2ncccc2C(F)(F)F)CC1 [compound 13]
- p38α ΔTm (° C.) @100 μM [2, 20]: 0.005 °C
- ERK2 ΔTm (° C.) @100 μM [3]: 0.390 °C

SMILES: O=S(=O)(c1ccccc1)N(Cc1ccccn1)Cc1ccccn1 [compound 16]
- p38α ΔTm (° C.) @100 μM [2, 20]: −0.052 °C
- ERK2 ΔTm (° C.) @100 μM [3]: 0.444 °C

SMILES: O=S(=O)(NCc1csc(-c2cccs2)n1)c1ccc2c(c1)CCO2 [compound 23]
- p38α ΔTm (° C.) @100 μM [2, 20]: −0.488 °C
- ERK2 ΔTm (° C.) @100 μM [3]: −0.598 °C

SMILES: O=S(=O)(CCS(=O)(=O)c1ccccn1)c1ccc(Cl)cc1 [compound 69]
- p38α ΔTm (° C.) @100 μM [2, 20]: −0.233 °C
- ERK2 ΔTm (° C.) @100 μM [3]: 0.361 °C

SMILES: O=C(CSc1cccs1)NCCSCc1ccco1 [compound 146]
- p38α ΔTm (° C.) @100 μM [2, 20]: −1.084 °C
- ERK2 ΔTm (° C.) @100 μM [3]: −1.632 °C

SMILES: Cc1nc(S(=O)(=O)NCc2cc(F)cc3c2OCOC3)cn1C [compound 150]
- p38α ΔTm (° C.) @100 μM [2, 20]: −0.171 °C
- ERK2 ΔTm (° C.) @100 μM [3]: 0.133 °C

SMILES: Cc1cc(F)ccc1-c1nc(NC(CO)CO)nc2c1ccc(=O)n2-c1c(F)cccc1F [dilmapimod]
- serum C-reactive protein (CRP) levels ([16]; patients at-risk for ARDS): modestly reduced
- safety in patients at-risk for ARDS [16]: safe at the doses administered

SMILES: Cc1c(F)cc(C(=O)NC2CC2)cc1-c1ccc(C(=O)NCC(C)(C)C)cn1 [losmapimod]
- serum CRP [17]: reduced
- vascular relaxation [17]: improved
